Article PMC11324666, “Two novel in vitro assays to screen chemicals for their capacity to inhibit thyroid hormone transmembrane transporter proteins OATP1C1 and OAT4” (Archives of Toxicology, 2024)
Read-outs that look alike come from different tables or passages of the source.

What was measured:
[1] = target: T1, OATP1C1 (Homo sapiens, UniProt Q9NYB5); assay: CHO-K1 OATP1C1 TH uptake assay with 125I-T4 tracer; type: cell-based; settings: for 125I-T4 uptake compared to the vehicle control (range finding): single concentration 10 or 100 µM, below 80% = positive hit
T1 construct: host or cells: CHO-K1
T1 sequence (Q9NYB5 1-712): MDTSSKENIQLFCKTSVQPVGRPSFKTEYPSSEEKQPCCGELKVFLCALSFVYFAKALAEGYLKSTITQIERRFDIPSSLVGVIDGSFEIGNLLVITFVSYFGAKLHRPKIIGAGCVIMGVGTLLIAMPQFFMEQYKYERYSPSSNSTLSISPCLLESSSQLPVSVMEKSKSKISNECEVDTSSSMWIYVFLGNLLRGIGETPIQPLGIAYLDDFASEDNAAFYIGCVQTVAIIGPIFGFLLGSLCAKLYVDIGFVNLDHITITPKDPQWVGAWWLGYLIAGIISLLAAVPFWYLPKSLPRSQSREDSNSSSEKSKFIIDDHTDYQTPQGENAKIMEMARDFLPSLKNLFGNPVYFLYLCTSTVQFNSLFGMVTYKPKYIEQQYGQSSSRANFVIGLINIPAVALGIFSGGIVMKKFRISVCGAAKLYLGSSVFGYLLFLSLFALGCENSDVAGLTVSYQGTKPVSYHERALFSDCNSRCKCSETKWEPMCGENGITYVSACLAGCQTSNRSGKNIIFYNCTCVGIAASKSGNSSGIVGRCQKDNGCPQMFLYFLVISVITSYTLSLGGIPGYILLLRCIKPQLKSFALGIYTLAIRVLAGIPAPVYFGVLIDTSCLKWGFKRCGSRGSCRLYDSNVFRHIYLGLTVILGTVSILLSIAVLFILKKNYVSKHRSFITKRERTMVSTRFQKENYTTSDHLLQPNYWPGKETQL
Experimental: MDCK-OAT4 and MDCK-DEST cells were cultured in DMEM:F12 (L-glutamine, 15 mM HEPES) (Gibco) supplemented with (100 µg/mL penicillin + 100 µg/mL streptomycin), 10% fetal calf serum (Gibco) and 2 µg/mL blasticidin (Sigma). CHO-K1 OATP1C1 or WT cells were cultured in F12 nutrient mix (Gibco) supplemented with (100 µg/mL penicillin + 100 µg/mL streptomycin), 10% fetal calf serum (Gibco) and […] G418 (Sigma). All cell cultures were incubated at 37 °C with 5% CO2 saturation until 80% confluency. MDCK-OAT4 and MDCK-DEST cells were seeded in 96 wells plate at a density of 4 × 10^5 cells in 100 µL medium per well and incubated for 24 h before the start of the MDCK-OAT4 TH uptake assay. CHO-K1 OATP1C1 and WT cells were seeded in 96 wells plate at a density of 3 × 10^5 cells in 100 µL medium per well 72 h before the CHO-K1 OATP1C1 TH uptake assay. Medium from CHO-K1 OATP1C1 or WT assay plates was changed to serum-free F12 medium containing 5 mM sodium-butyrate 24 h before start of the CHO-K1 OATP1C1 TH uptake assay to increase transfected expression of SV-40 promotor plasmids.
Subsequently 10 µL of a tenfold stock of test compound in uptake buffer (solvent concentration 1% v/v) was added to each well. […] Cells were exposed at 37 °C for 20 min (MDCK-OAT4) or 30 min (CHO-K1 OATP1C1), unless stated differently. After exposure, cells were immediately washed with ice-cold PBS supplemented with 0.1% bovine serum albumin (BSA). Subsequently, cells were lysed in 50 µL of 0.1 M NaOH under continuous shaking at room temperature. After 20 min, cell lysates were manually transferred into separate 5 mL polypropylene tubes. One tube was also prepared with 10 µL of the T4 tracer solution. Radioactivity was measured in a Wizard^2 gamma counter (Perkin Elmer).
For the CHO-K1 OATP1C1 TH uptake assay total of 29 chemicals (Table 1) were selected for the EDC screening based on available literature data. […] The same chemicals were selected for the MDCK-OAT4 TH uptake assay, with the exception of BPF, VRP and TCS. […] The THTMT TH uptake assay was then performed as described earlier. […] A concentration of 100 µM ICG was used as a reference chemical for OATP1C1 and 100 µM LESI for OAT4. At least three independent experiments were performed for each chemical.
Raw values were normalized to the total amount of radioactivity in the T4 tracer solution. These values were expressed as a percentage of total radioactivity added (or uptake percentage) and used for all further data analysis. Statistically significant differences between the T4 uptake of transfected and wild type cells, in the presence or absence of inhibitor, were determined by two-way ANOVA (α = 5%, two-sided). […] In brief, uptake values were normalized to the median response of the vehicle and positive controls for each plate. […] Statistical analysis were performed using GraphPad Prism version 8 for Windows (GraphPad Software, San Diego, California USA) and SAS 9.3 (SAS Institute, Cary NC).

[2] = test system: CHO-K1 OATP1C1 cells; settings: for Cytotoxicity IC10: concentration that inhibits cell viability by 10%, CHO-K1 OATP1C1 cells, 30 min exposure
Experimental: (§1) Cell viability was assessed through the quantitation of ATP present in cells using the commercially available CellTiter-Glo® luminescent cell viability assay and performed according to the manufacturer’s instruction (Promega, Leiden, the Netherlands). Briefly, cells were seeded as described earlier in opaque-walled clear-bottom 96 well plates. On the day of the experiment, each well was washed with 200 µL phosphate buffered saline (PBS) and exposed to 80 µL of uptake buffer, 10 µL of a tenfold stock of test compound solved in uptake buffer or control and 10 µL of T4 (final concentration 10 nM). 0.1% DMSO was used as a solvent control, while 10% DMSO was used as a positive control. After exposure for the indicated times similar to THTMT TH uptake assay, cells were immediately washed with ice-cold PBS + 0.1%BSA and exposed to 100 µL of the CellTiter-Glo® Reagent. Plates were then shaken on an orbital shaker for 2 min and left to incubate at room temperature for 10 min. Luminescence was measured on a BioTek Cytation 5 microplate reader. […] Each individual experiment was repeated at least twice and contained three technical replicates of each control and concentration tested.
Figure S1. […] Blue dots indicate the plate medians from three or four independent experiments, all control and chemical concentrations were tested in triplicates per plate.

[3] = test system: MDCK-OAT4 cells; assay: CellTiter-Glo luminescent cell viability assay in MDCK-OAT4 cells; settings: for Cytotoxicity IC10: concentration that inhibits cell viability by 10%, MDCK-OAT4 cells, 20 min exposure
Experimental: as §1
Figure S2. […] Blue dots indicate the plate medians from three or four independent experiments, all control and chemical concentrations were tested in triplicates per plate. The black line indicates the best-fit concentrations response curve, the dotted line the corresponding 95% confidence interval.

[4] = test system: oatp1c1; parameters: method as in Westholm et al. (2009); settings: T4 1 nM; ref Westholm et al. (2009); read-out: IC50 of T4 transmembrane transport inhibition; cited from earlier work
[5] = test system: oatp1c1; parameters: method as in Tohyama et al. (2004); settings: ref Tohyama et al. (2004); cited from earlier work
[6] = concentration that inhibits 125I-T4 uptake by 20%, 10 nM T4, 30 min, brackets = 95% CI

SMILES	T4 uptake inhibition BMC20 (M), [CI] [1, 6]	125I-T4 uptake compared to the vehicle control (range finding) ([1]; 10 nM T4, 30 min)	Cytotoxicity IC10 [2] [µM]	Cytotoxicity IC10 [3] [µM]	other results
CC(C)(c1cc(Br)c(O)c(Br)c1)c1cc(Br)c(O)c(Br)c1 [Tetrabromobisphenol A, Tetrabromobisphenol-A]	2.03E−09 [1.28E−09; 3.22E−09] M	below 80%	> 0.3	> 10	BMC20 (20% reduction in T4 uptake) [1]: 0.0020 µM
CC1(C)C(/C=C/C=C/C=C/C=C2\N(CCCCS(=O)(=O)O)c3ccc4ccccc4c3C2(C)C)=[N+](CCCCS(=O)(=O)[O-])c2ccc3ccccc3c21 [Indocyanine green, reference compound]	3.60E−07 [2.17E−07; 5.97E−07] M	–	> 100	> 10	T4 uptake on co-exposure to known inhibitor ([1]; 100 µM, t = 40 min, versus CHO-K1 wildtype cells): decreased back to control; IC50 [4]: 0.1 µM
O=C(O)C(F)(F)C(F)(F)C(F)(F)C(F)(F)C(F)(F)C(F)(F)C(F)(F)F [Perfluorooctanoic acid]	2.94E−06 [1.04E−06; 8.36E−06] M	–	> 100	> 100	–
Oc1ccc(Cc2ccc(O)cc2)cc1 [Bisphenol F, Bisphenol-F]	4.49E−05 [2.80E−05; 7.20E−05] M	below 80%	> 100	–	–
Oc1ccc(C(c2ccc(O)cc2)(C(F)(F)F)C(F)(F)F)cc1 [Bisphenol AF, Bisphenol-AF]	3.52E−06 [2.03E−06; 6.11E−06] M	–	0.909	–	cytotoxic effects ([2]; at concentrations of the uptake assay, Figure S1): confounded by cytotoxic effects; cytotoxic effects [3]: cytotoxic
O=c1c(O)c(-c2ccc(O)c(O)c2)oc2cc(O)cc(O)c12 [Quercetin]	3.94E−08 [4.41E−09; 3.51E−07] M	–	> 100	> 100	–
CCCN(CCC)S(=O)(=O)c1ccc(C(=O)O)cc1 [Probenecid, reference compound]	6.66E−07 [1.24E−07; 3.57E−06] M	–	> 100	–	Ki [5]: 293 µM
O=C1OC(c2ccc(O)c(S(=O)(=O)O)c2)(c2ccc(O)c(S(=O)(=O)O)c2)c2c(Br)c(Br)c(Br)c(Br)c21 [Bromosulfophthalein, reference compound]	8.72E−07 [5.70E−07; 1.33E−06] M	below 80%	> 100	> 100	–
O=S(=O)(O)C(F)(F)C(F)(F)C(F)(F)C(F)(F)C(F)(F)C(F)(F)C(F)(F)C(F)(F)F [Perfluorooctanesulfonic acid]	4.03E−07 [2.32E−07; 7.00E−07] M	below 80%	> 100	> 100	–
COc1cc([C@@H]2Oc3c(O)cc([C@H]4Oc5cc(O)cc(O)c5C(=O)[C@@H]4O)cc3[C@H]2CO)ccc1O [Silychristin, reference compound]	3.78E−06 [1.54E−06; 9.27E−06] M	below 80%	> 10	–	–
CO[C@H]1/C=C/O[C@@]2(C)Oc3c(C)c(O)c4c(O)c(c(/C=N/N5CCN(C)CC5)c(O)c4c3C2=O)NC(=O)/C(C)=C\C=C\[C@H](C)[C@H](O)[C@@H](C)[C@@H](O)[C@@H](C)[C@H](OC(C)=O)[C@@H]1C [Rifampicin, reference compound]	4.06E−05 [2.58E−05; 6.38E−05] M	–	> 100	> 100	–
Oc1c(Cl)c(Cl)c(Cl)c(Cl)c1Cl [Pentachlorophenol]	–	–	> 18.5	1.14	T4 uptake inhibition BMC20 (M), [CI] [1]: 8.81E−08 [5.80E−08; 1.34E−07] M; cytotoxic effects ([3]; at concentrations of the uptake assay, Figure S2): cytotoxic
O=S(=O)([O-])c1cc(S(=O)(=O)O)ccc1C1=c2cc3c4c(c2Oc2c1cc1c5c2CCCN5CCC1)CCC[N+]=4CCC3 [Sulforhodamine 101, reference compound]	2.86E−06 [1.29E−06; 6.34E−06] M	below 80%	> 10	–	–
